Series [1] is described as follows: Pharmacokinetics in mice. The class given is in vivo. Particulars: 10 mg/kg. From the text:
FIGS. 8A-8E show HSP70 inhibition is effective on mouse CRC cell lines. FIG. 8A: Association of HSPA1A gene expression and survival rate of patients with colorectal adenocarcinoma (COAD). Patient data was gathered from USCS Xena platform (GDC-TCGA COAD; n=435). Log-rank test was used to determine significance. p=0.0004. FIG. 8B: Association of HSPA1A gene expression and stage of COAD (n=440). Wilcoxon rank sum test was used to determine significance. * p<0.05, *** p<0.001. FIG. 8C: Body weights of mice injected with HT-29 tumor xenografts. Weights were measured at the start of the treatment to determine mouse toxicity. n.s. not significant, n=10 mice per group. FIG. 8D: H&E staining of livers and colons of mice injected with HT-29 tumor xenografts. Tissues were collected at the end of the study. FIG. 8E. Pharmacokinetic values of AP-4-139B in the liver, plasma, and brain from three CDI mice treated with 10 mg/kg of compound.

In series [2] the target is T1, full length human HSP70 (Homo sapiens, UniProt P0DMV8).
T1 construct: Five μL of 30 nM full length human HSP70 in assay buffer
T1 sequence (P0DMV8 whole entry): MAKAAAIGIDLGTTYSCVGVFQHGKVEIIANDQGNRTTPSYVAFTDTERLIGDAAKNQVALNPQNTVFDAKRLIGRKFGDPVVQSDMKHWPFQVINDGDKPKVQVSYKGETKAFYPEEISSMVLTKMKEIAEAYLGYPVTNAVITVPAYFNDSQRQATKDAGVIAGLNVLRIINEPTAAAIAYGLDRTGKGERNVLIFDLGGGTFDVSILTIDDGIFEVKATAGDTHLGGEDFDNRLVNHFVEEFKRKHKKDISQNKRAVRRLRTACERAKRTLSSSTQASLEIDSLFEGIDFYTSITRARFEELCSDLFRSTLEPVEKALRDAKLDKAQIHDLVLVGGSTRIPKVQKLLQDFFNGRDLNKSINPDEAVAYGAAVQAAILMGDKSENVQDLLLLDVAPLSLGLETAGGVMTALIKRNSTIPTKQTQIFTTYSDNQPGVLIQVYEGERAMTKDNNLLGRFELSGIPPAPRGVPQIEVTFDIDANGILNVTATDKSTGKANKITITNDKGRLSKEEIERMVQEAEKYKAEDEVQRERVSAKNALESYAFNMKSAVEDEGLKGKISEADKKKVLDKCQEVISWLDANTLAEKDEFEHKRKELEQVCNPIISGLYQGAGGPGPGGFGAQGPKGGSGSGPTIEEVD
Description: HSP70 mediated ATPase assay (Transcreener ADP-FI). The format is biochemical. As for the experimental part:
FIGS. 1A-1D show ATPase inhibition and direct binding of a novel HSP70 inhibitor. FIG. 1A: Compounds AP-3-97 and AP-4-139B are direct inhibitors of HSP70. HSP70 mediated ATPase activity was assessed using the TRANSCREENER® ADP-FI assay. Five microliters of 30 nM purified human HSP70 in assay buffer was added to test compounds for 30 minutes, followed by addition of excess ATP. After 15 minutes, reactions were stopped and fluorescence was assessed on a plate reader. Data are normalized to percent inhibition, where 100% is the value in the absence of HSP70, and 0% is the value in the presence of HSP70. Compounds shown include PET-16 (positive control) and the novel HSP70 inhibitors AP-3-97 and AP-4-139B. VY-3-277 was used as a negative control. FIG. 1B: Compound AP-4-139B binds HSP70. Whole cell extracts (WCE) from H1299 cells were incubated with 10 μM Biotin or with a Biotin-labeled variant of AP-4-139B (Biotin-AP-4-139B) for 5 hours. Biotin-AP-4-139B containing complexes were captured using NeutrAvidin resins and separated by SDS-PAGE. The Coomassie-stained protein band of approximately 70 kDa was excised and subjected to tryptic digestion and liquid chromatography-tandem mass spectrometry, and identified to be HSP70. FIG. 1C: H1299 cells were pre-treated with 10 μM of VY-3-277, PET-16, or AP-4-139B for 1 hour prior to the addition of 10 μM Biotin-AP-4-139B for 5 hours. Biotin-AP-4-139B containing complexes were captured by NeutrAvidin resins and immunoblotted using the indicated antibodies following SDS-PAGE. Whole cell extracts (WCE) were examined for the expression of HSP70 (input) and GRP75 (input) by Western blot analysis. FIG. 1D: Compound AP-4-139B directly binds purified human HSP70. […] Data were analyzed using the evaluation software from Biacore and the resulting sensograms were exported and re-plotted in GraphPad Prism.
HSP70 mediated ATPase activity was measured using the Transcreener® ADP-FI assay (BellBrook Labs). […] After 30 minutes, fluorescence at 560/620 nm was measured using the Envision plate reader. […]

In series [3] the test system is WM983B tumor xenografts. The series is described as follows: WM983B melanoma xenograft in NSG mice. The format is in vivo, mouse. As to conditions: 12.5 mg/kg i.p. twice per week. As for the experimental part: WM983B tumor xenografts were established in NSG mice. […] Tumors were collected at the end of the experiment and assessed for the level of the client protein MRPS14.
FIG. 18 comprises a series of images illustrating IHC of WM983B treated tumors using IgG negative control or antisera to MRPS14t.
AP-4-139B was tested as a single agent in a WM983B melanoma xenograph in mice. WM983B tumor xenografts were established in NSG mice. […] Tumors were collected at the end of the experiment and assessed for the level of the client protein MRPS14.

pIC50: −log10 of the molar value.

`c1ccc(-c2cn3nc(CCCCCC[P+](c4ccccc4)(c4ccccc4)c4ccccc4)sc3n2)cc1` [AP-4-139B, Triphenyl(6-(6-phenylimidazo[2,1-b][1,3,4]thiadiazol-2-yl)hexyl)phosphonium bromide]: in series [1], the brain penetrance result is on record as “modest brain penetrance” and the half-life in plasma result is listed as “> five”. Besides, the half-life in series [1] (CDI, mouse, plasma) was over 5 h. Moreover, the “inhibition of HSP70 ATPase activity (in words)” value in series [2] is given as “markedly superior potency”. Further, in series [3], the “level of client protein MRPS14 in tumors (IHC)” value was “lose mitochondrial protein MPS14” and the “tumor growth, WM983B xenograft” value was “inhibit tumor growth”.
`C(#C[P+](c1ccccc1)(c1ccccc1)c1ccccc1)c1ccccc1` [PET-16, Triphenyl(phenylethynyl)phosphonium bromide, reference compound]: the negative logarithm of the IC50 (pIC50) in series [2] was about 5.52.
